Results as given in ChEMBL document CHEMBL1201862, “PubChem BioAssay data set” (2004).
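Grown in 96-well plates, cells were treated for 48 hours with each compound at five concentrations. Insufficient inhibition: endpoint recorded as highest concentration tested. At the GI50, growth is halved.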 Active and inactive are the calls of the source. Rule as the data show it: active = GI50 up to about 1.1 µM and inactive = higher.

Tests used:
Assay in all cases: NCI anticancer screen, dose series, 48 h
786-0 = test system: 786-0
A498 = test system: A498
A549 = test system: A549
ACHN = test system: ACHN
BT-549 = test system: BT-549
CAKI-1 = test system: CAKI-1
CCRF-CEM = test system: CCRF-CEM
COLO 205 = test system: COLO 205
DU-145 = test system: DU-145
EKVX = test system: EKVX
HCT-116 = test system: HCT-116
HCT-15 = test system: HCT-15
HL-60 = test system: HL-60
HOP-62 = test system: HOP-62
HT-29 = test system: HT-29
Hs-578T = test system: Hs-578T
IGROV-1 = test system: IGROV-1
K562 = test system: K562
KM12 = test system: KM12
LOX IMVI = test system: LOX IMVI
M14 = test system: M14
MCF7 = test system: MCF7
MDA-MB-231 = test system: MDA-MB-231
MDA-MB-435 = test system: MDA-MB-435
MDA-N = test system: MDA-N
MOLT-4 = test system: MOLT-4
Malme-3M = test system: Malme-3M
NCI-H226 = test system: NCI-H226
NCI-H23 = test system: NCI-H23
NCI-H460 = test system: NCI-H460
NCI/ADR-RES = test system: NCI/ADR-RES
OVCAR-3 = test system: OVCAR-3
OVCAR-4 = test system: OVCAR-4
OVCAR-5 = test system: OVCAR-5
OVCAR-8 = test system: OVCAR-8
PC-3 = test system: PC-3
RPMI-8226 = test system: RPMI-8226
RXF 393 = test system: RXF 393
SF-268 = test system: SF-268
SF-295 = test system: SF-295
SF-539 = test system: SF-539
SK-MEL-28 = test system: SK-MEL-28
SK-MEL-2 = test system: SK-MEL-2
SK-MEL-5 = test system: SK-MEL-5
SK-OV-3 = test system: SK-OV-3
SN12C = test system: SN12C
SNB-19 = test system: SNB-19
SNB-75 = test system: SNB-75
SR = test system: SR
SW-620 = test system: SW-620
T47D = test system: T47D
TK-10 = test system: TK-10
U-251 = test system: U-251
UACC-257 = test system: UACC-257
UACC-62 = test system: UACC-62
UO-31 = test system: UO-31
HOP-92 = test system: HOP-92
NCI-H522 = test system: NCI-H522

## CC(=O)OC1CCC2(C)C(CCC3C4CC=C(C5(C)OCCO5)C4(C)CCC32)C1 (configuration not stated)
786-0
  GI50: 30.4 µM (inactive)
A498
  GI50: 24.9 µM (inactive)
A549
  GI50: 26.7 µM (inactive)
ACHN
  GI50: 25.1 µM (inactive)
BT-549
  GI50: 20.6 µM (inactive)
CAKI-1
  GI50: 28.3 µM (inactive)
CCRF-CEM
  GI50: 19.5 µM (inactive)
COLO 205
  GI50: 17.6 µM (inactive)
DU-145
  GI50: 41.3 µM (inactive)
EKVX
  GI50: 21.7 µM (inactive)
HCT-116
  GI50: 20.1 µM (inactive)
HCT-15
  GI50: 27.2 µM
HL-60
  GI50: 19.9 µM (inactive)
HOP-62
  GI50: 19.1 µM (inactive)
HT-29
  GI50: 19.5 µM (inactive)
Hs-578T
  GI50: 23.3 µM (inactive)
IGROV-1
  GI50: 24.2 µM (inactive)
K562
  GI50: 25.1 µM (inactive)
KM12
  GI50: 23.6 µM (inactive)
LOX IMVI
  GI50: 16.9 µM (inactive)
M14
  GI50: 23 µM (inactive)
MCF7
  GI50: 22.6 µM (inactive)
MDA-MB-231
  GI50: 33.2 µM (inactive)
MDA-MB-435
  GI50: 20.3 µM (inactive)
MDA-N
  GI50: 20.3 µM (inactive)
MOLT-4
  GI50: 17.3 µM (inactive)
Malme-3M
  GI50: 22.1 µM (inactive)
NCI-H226
  GI50: 25.9 µM (inactive)
NCI-H23
  GI50: 25.6 µM (inactive)
NCI-H460
  GI50: 20 µM (inactive)
NCI/ADR-RES
  GI50: 20.6 µM (inactive)
OVCAR-3
  GI50: 19.7 µM (inactive)
OVCAR-4
  GI50: 19.7 µM (inactive)
OVCAR-5
  GI50: 22.1 µM (inactive)
OVCAR-8
  GI50: 20.1 µM (inactive)
PC-3
  GI50: 17.3 µM (inactive)
RPMI-8226
  GI50: 14.4 µM (inactive)
RXF 393
  GI50: 17.7 µM (inactive)
SF-268
  GI50: 27.8 µM (inactive)
SF-295
  GI50: 26.1 µM (inactive)
SF-539
  GI50: 20.5 µM (inactive)
SK-MEL-28
  GI50: 21.2 µM (inactive)
SK-MEL-2
  GI50: 18.5 µM (inactive)
SK-MEL-5
  GI50: 15.6 µM (inactive)
SK-OV-3
  GI50: 47.9 µM (inactive)
SN12C
  GI50: 19.6 µM (inactive)
SNB-19
  GI50: 30.2 µM (inactive)
SNB-75
  GI50: 28.8 µM (inactive)
SR
  GI50: 17.1 µM (inactive)
SW-620
  GI50: 21 µM (inactive)
T47D
  GI50: 22.9 µM (inactive)
TK-10
  GI50: 22.5 µM (inactive)
U-251
  GI50: 18 µM (inactive)
UACC-257
  GI50: 18.7 µM (inactive)
UACC-62
  GI50: 19.9 µM (inactive)
UO-31
  GI50: 25.4 µM (inactive)

## OCC1OC(n2cnc3c(/C=C(/O)c4ccccc4)ncnc32)C(O)C1O (configuration not stated)
786-0
  GI50: 2.94 µM (inactive)
A498
  GI50: 2.16 µM (inactive)
A549
  GI50: 1.29 µM (inactive)
ACHN
  GI50: 0.923 µM (active)
BT-549
  GI50: 6.08 µM (inactive)
CAKI-1
  GI50: 3.11 µM (inactive)
CCRF-CEM
  GI50: 0.61 µM (active)
COLO 205
  GI50: 0.944 µM (active)
DU-145
  GI50: 1.61 µM (inactive)
EKVX
  GI50: 19.1 µM (inactive)
HCT-116
  GI50: 1.55 µM (inactive)
HCT-15
  GI50: 1.05 µM
HL-60
  GI50: 0.165 µM (active)
HOP-62
  GI50: 5.21 µM (inactive)
HOP-92
  GI50: > 25.1 µM (inactive)
HT-29
  GI50: 3.1 µM (inactive)
Hs-578T
  GI50: 14.4 µM (inactive)
IGROV-1
  GI50: 0.927 µM (active)
K562
  GI50: 2.83 µM (inactive)
KM12
  GI50: 4.62 µM (inactive)
LOX IMVI
  GI50: 1.63 µM (inactive)
M14
  GI50: 0.813 µM (active)
MCF7
  GI50: 3.8 µM (inactive)
MDA-MB-231
  GI50: 1.64 µM (inactive)
MDA-MB-435
  GI50: 2.25 µM (inactive)
MDA-N
  GI50: 4.89 µM (inactive)
MOLT-4
  GI50: 1.71 µM (inactive)
Malme-3M
  GI50: 5.33 µM (inactive)
NCI-H226
  GI50: 5.38 µM (inactive)
NCI-H23
  GI50: 2.82 µM (inactive)
NCI-H460
  GI50: 0.594 µM (active)
NCI-H522
  GI50: 2.16 µM (inactive)
NCI/ADR-RES
  GI50: 2.11 µM (inactive)
OVCAR-3
  GI50: 2.77 µM (inactive)
OVCAR-4
  GI50: 2.84 µM (inactive)
OVCAR-5
  GI50: 3.98 µM (inactive)
OVCAR-8
  GI50: 2.17 µM (inactive)
PC-3
  GI50: 4.04 µM (inactive)
RPMI-8226
  GI50: 1.38 µM (inactive)
RXF 393
  GI50: 4.12 µM (inactive)
SF-268
  GI50: 5.78 µM (inactive)
SF-295
  GI50: 5.13 µM (inactive)
SF-539
  GI50: 4.93 µM (inactive)
SK-MEL-28
  GI50: 41.8 µM (inactive)
SK-MEL-2
  GI50: 1.01 µM (active)
SK-MEL-5
  GI50: 5.65 µM (inactive)
SK-OV-3
  GI50: 0.428 µM (active)
SN12C
  GI50: 3.19 µM (inactive)
SNB-19
  GI50: 12.4 µM (inactive)
SNB-75
  GI50: 0.7 µM (active)
SR
  GI50: 1.35 µM (inactive)
SW-620
  GI50: 0.875 µM (active)
T47D
  GI50: 3.03 µM (inactive)
TK-10
  GI50: 0.516 µM (active)
U-251
  GI50: 10.9 µM (inactive)
UACC-257
  GI50: 3.89 µM (inactive)
UACC-62
  GI50: 8.3 µM (inactive)
UO-31
  GI50: 0.92 µM (active)

## CC12CCC(=O)C=C1CCC1C2CCC2(C)C(C(=O)Cn3cnc4c(=S)nc[nH]c43)CCC12 (configuration not stated)
786-0
  GI50: 27.2 µM (inactive)
A498
  GI50: 29.9 µM (inactive)
A549
  GI50: 48.1 µM (inactive)
ACHN
  GI50: 40 µM (inactive)
BT-549
  GI50: 28.4 µM (inactive)
CAKI-1
  GI50: 34 µM (inactive)
CCRF-CEM
  GI50: 25.5 µM (inactive)
COLO 205
  GI50: 42 µM (inactive)
DU-145
  GI50: 23.3 µM (inactive)
EKVX
  GI50: 41.5 µM (inactive)
HCT-116
  GI50: 35.9 µM (inactive)
HCT-15
  GI50: 58.6 µM
HL-60
  GI50: 33.3 µM (inactive)
HOP-62
  GI50: 18.2 µM (inactive)
HOP-92
  GI50: 10 µM (inactive)
HT-29
  GI50: 33 µM (inactive)
Hs-578T
  GI50: 52 µM (inactive)
IGROV-1
  GI50: 23.6 µM (inactive)
K562
  GI50: 48.3 µM (inactive)
KM12
  GI50: 37.9 µM (inactive)
LOX IMVI
  GI50: 24.3 µM (inactive)
M14
  GI50: 27.5 µM (inactive)
MCF7
  GI50: 18.1 µM (inactive)
MDA-MB-231
  GI50: 38.9 µM (inactive)
MDA-MB-435
  GI50: 24.7 µM (inactive)
MDA-N
  GI50: 39.2 µM (inactive)
MOLT-4
  GI50: 21.6 µM (inactive)
Malme-3M
  GI50: 40.5 µM (inactive)
NCI-H226
  GI50: 41.5 µM (inactive)
NCI-H23
  GI50: 24.5 µM (inactive)
NCI-H460
  GI50: 28.8 µM (inactive)
NCI-H522
  GI50: 23.4 µM (inactive)
NCI/ADR-RES
  GI50: 62.4 µM (inactive)
OVCAR-3
  GI50: 18.2 µM (inactive)
OVCAR-4
  GI50: 17.3 µM (inactive)
OVCAR-5
  GI50: > 100 µM (inactive)
OVCAR-8
  GI50: 27.5 µM (inactive)
PC-3
  GI50: 63.7 µM (inactive)
RPMI-8226
  GI50: 25.5 µM (inactive)
RXF 393
  GI50: 17.6 µM (inactive)
SF-268
  GI50: 38.3 µM (inactive)
SF-295
  GI50: 28.2 µM (inactive)
SF-539
  GI50: 55.5 µM (inactive)
SK-MEL-28
  GI50: > 100 µM (inactive)
SK-MEL-2
  GI50: 41.9 µM (inactive)
SK-MEL-5
  GI50: 30.6 µM (inactive)
SK-OV-3
  GI50: 33.5 µM (inactive)
SN12C
  GI50: 67.8 µM (inactive)
SNB-19
  GI50: 23.6 µM (inactive)
SNB-75
  GI50: 15.5 µM (inactive)
SR
  GI50: 27.4 µM (inactive)
SW-620
  GI50: 76.2 µM (inactive)
T47D
  GI50: 9.23 µM (inactive)
TK-10
  GI50: 36 µM (inactive)
U-251
  GI50: 30.1 µM (inactive)
UACC-257
  GI50: 35.6 µM (inactive)
UACC-62
  GI50: 23.8 µM (inactive)
UO-31
  GI50: 44.8 µM (inactive)
